Measurements from BigSolDB 2.1.

[1] = in 2,2,4-trimethylpentane, 298.2 K
[2] = in 2,2,4-trimethylpentane, 308.2 K
[3] = in 2,2,4-trimethylpentane, 318.2 K

## c1ccc2cc3ccccc3cc2c1
[1]
  solubility (mole fraction): 0.00119
[2]
  solubility (mole fraction): 0.00152
[3]
  solubility (mole fraction): 0.00177
In ethanol, 298.2 K
  solubility (mole fraction): 0.000505
In ethanol, 308.2 K
  solubility (mole fraction): 0.000665
In ethanol, 318.2 K
  solubility (mole fraction): 0.00078

## c1ccc2c(c1)ccc1ccccc12
[1]
  solubility (mole fraction): 0.0246
[2]
  solubility (mole fraction): 0.0378
[3]
  solubility (mole fraction): 0.0484
In ethanol, 298.2 K
  solubility (mole fraction): 0.0119
In ethanol, 308.2 K
  solubility (mole fraction): 0.0159
In ethanol, 318.2 K
  solubility (mole fraction): 0.019
